Source: US20250332139A1, “PS[…] AND THEIR USE FOR TREATING […] AND NE[…] DISORDERS” (Transcend Therapeutics, Inc., priority 2021, published 2025)
“And” between values parts separate entries of the source, which are not always exact repeats. Equal entries are not always repeated. Marks after values point to notes of the source that are not given here.

Tests used:
[1] = tested on: patients with PTSD or MDD; healthy subjects; assay: Methylone case series (outpatient, CGI-S/CGI-I); type: in vivo, human
Experimental: CGI-S scale was also evaluated in a subset of patients from Cohort 2 post-treatment. Cohort 2 was evaluated for any observed or reported safety events following a single dosing session.
Clinical Global Impressions (CGI) scale includes 2 components: CGI-S(“severity”) and CGI-I (“improvement”).
No protected health information was disclosed, and no consent was obtained from patients for use of their archival data. Case narratives were systematically compiled from data collected as part of routine clinical work. Diagnoses were confirmed by an experienced clinician using semi-structured interviews. Baseline symptom severity was evaluated using the Clinical Global Impressions Scale-Severity (CGI-S). Symptom improvement was evaluated using the Clinical Global Impressions Scale-Improvement (CGI-I) following dosing. […] Because these case narratives were examined retrospectively from routine clinical care records, and not gathered prospectively in a research study, more specific validated rating scales for assessing PTSD symptoms were not available. Additionally, follow-up varied, with the length of follow-up ranging from one week (Case 2) to 15 years (Case 16).

168 GPCRs [2] = target: 168 GPCRs (Homo sapiens, UniProt O95838); assay: β-arrestin GPCR screen (PathHunter/GPCRmax), antagonist mode; details: GLP2R; Antagonist; 1 uM
168 GPCRs [3] = target: 168 GPCRs (Homo sapiens, UniProt P08172); assay: as above; details: CHRM2; Antagonist; 1 uM
168 GPCRs [4] = target: 168 GPCRs (Homo sapiens, UniProt P29371); assay: as above; details: GPCR TACR3; Antagonist mode; 10 uM
168 GPCRs [5] = target: 168 GPCRs (Homo sapiens, UniProt P41587); assay: as above; details: GPCR VIPR2; Antagonist mode; 10 uM
168 GPCRs [6] = target: 168 GPCRs (Homo sapiens, UniProt P47211); assay: as above; details: GPCR GALR1; Antagonist mode; 10 uM
168 GPCRs [7] = target: 168 GPCRs (Homo sapiens, UniProt P48039); assay: as above; details: GPCR MTNR1A; Antagonist mode; 10 uM
168 GPCRs [8] = target: 168 GPCRs (Homo sapiens, UniProt Q01726); assay: as above; details: GPCR MC1R; Antagonist mode; 10 uM
168 GPCRs [9] = target: 168 GPCRs (Homo sapiens, UniProt Q15077); assay: as above; details: P2RY6; Antagonist; 1 uM
168 GPCRs [10] = target: 168 GPCRs (Homo sapiens, UniProt Q8NFJ6); assay: as above; details: GPCR PROKR2; Antagonist mode; 10 uM
168 GPCRs [11] = target: 168 GPCRs (Homo sapiens, UniProt Q9HBW0); assay: as above; details: EDG4; Antagonist; 1 uM
168 GPCRs (Homo sapiens, UniProt Q9HBW0), sequence (Q9HBW0 whole entry): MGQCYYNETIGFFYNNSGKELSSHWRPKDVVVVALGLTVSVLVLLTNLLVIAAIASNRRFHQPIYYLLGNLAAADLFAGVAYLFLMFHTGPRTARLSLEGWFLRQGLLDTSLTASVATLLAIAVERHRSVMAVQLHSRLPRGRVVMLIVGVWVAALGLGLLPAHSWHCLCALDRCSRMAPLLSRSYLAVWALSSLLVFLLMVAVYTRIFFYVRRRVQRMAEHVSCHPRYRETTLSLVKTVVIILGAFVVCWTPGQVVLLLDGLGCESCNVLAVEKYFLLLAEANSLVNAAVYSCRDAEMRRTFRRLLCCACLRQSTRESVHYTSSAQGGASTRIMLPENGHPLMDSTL

168 GPCRs (Homo sapiens, UniProt O95838), sequence (O95838 whole entry): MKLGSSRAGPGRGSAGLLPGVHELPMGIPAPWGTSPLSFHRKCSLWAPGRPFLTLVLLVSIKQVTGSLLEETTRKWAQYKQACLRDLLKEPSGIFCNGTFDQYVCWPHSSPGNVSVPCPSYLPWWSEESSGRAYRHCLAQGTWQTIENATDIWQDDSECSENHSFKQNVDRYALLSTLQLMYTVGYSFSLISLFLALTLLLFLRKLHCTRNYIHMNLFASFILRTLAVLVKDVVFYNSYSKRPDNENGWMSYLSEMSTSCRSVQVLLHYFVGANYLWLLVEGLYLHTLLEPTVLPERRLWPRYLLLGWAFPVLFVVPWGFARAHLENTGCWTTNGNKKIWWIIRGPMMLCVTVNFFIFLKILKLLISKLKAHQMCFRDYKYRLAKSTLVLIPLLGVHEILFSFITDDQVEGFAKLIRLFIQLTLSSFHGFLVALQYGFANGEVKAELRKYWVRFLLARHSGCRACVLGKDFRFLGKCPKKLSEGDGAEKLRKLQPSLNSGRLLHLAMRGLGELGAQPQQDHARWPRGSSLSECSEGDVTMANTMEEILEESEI
168 GPCRs (Homo sapiens, UniProt Q15077), sequence (Q15077 whole entry): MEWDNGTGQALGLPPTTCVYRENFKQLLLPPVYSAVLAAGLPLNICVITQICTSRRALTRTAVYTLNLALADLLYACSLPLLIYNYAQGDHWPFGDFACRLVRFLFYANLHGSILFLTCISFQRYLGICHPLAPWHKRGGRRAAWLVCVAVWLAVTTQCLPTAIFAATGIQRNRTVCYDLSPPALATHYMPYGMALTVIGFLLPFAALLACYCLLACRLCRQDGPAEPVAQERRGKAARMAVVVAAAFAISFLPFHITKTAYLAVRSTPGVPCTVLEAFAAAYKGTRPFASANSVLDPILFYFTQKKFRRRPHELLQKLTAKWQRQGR
168 GPCRs (Homo sapiens, UniProt P29371), sequence (P29371 whole entry): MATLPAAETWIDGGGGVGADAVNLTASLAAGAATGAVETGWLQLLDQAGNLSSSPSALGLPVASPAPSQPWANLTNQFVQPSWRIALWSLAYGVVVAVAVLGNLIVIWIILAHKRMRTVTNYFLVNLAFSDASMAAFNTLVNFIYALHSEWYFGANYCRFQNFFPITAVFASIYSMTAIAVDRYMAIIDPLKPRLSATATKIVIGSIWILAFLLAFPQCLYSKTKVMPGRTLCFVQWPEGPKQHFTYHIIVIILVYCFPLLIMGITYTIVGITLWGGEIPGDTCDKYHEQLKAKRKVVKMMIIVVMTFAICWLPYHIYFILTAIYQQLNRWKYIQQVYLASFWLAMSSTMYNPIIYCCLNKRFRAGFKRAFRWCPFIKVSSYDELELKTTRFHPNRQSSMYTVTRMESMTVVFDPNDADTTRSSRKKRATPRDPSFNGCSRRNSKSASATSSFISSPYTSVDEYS
168 GPCRs (Homo sapiens, UniProt Q8NFJ6), sequence (Q8NFJ6 whole entry): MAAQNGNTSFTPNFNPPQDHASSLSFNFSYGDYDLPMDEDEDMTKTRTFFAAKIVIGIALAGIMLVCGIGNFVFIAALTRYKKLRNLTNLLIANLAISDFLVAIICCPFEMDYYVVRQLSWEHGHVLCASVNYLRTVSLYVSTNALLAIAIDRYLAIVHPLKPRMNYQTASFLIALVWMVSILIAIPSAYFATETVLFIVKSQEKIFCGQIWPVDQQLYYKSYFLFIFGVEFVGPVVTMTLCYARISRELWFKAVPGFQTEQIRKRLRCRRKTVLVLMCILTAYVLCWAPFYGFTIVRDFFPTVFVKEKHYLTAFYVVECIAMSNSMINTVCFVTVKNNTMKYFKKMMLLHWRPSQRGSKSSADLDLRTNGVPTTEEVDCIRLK
168 GPCRs (Homo sapiens, UniProt Q01726), sequence (Q01726 whole entry): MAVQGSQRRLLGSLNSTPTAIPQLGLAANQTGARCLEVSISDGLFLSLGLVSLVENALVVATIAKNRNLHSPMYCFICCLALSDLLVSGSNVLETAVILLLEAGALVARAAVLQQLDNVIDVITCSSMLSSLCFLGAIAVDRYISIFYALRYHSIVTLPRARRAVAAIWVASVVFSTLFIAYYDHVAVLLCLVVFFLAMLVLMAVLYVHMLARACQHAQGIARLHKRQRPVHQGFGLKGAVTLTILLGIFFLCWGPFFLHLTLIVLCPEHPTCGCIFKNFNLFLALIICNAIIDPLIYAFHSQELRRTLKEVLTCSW
168 GPCRs (Homo sapiens, UniProt P08172), sequence (P08172 whole entry): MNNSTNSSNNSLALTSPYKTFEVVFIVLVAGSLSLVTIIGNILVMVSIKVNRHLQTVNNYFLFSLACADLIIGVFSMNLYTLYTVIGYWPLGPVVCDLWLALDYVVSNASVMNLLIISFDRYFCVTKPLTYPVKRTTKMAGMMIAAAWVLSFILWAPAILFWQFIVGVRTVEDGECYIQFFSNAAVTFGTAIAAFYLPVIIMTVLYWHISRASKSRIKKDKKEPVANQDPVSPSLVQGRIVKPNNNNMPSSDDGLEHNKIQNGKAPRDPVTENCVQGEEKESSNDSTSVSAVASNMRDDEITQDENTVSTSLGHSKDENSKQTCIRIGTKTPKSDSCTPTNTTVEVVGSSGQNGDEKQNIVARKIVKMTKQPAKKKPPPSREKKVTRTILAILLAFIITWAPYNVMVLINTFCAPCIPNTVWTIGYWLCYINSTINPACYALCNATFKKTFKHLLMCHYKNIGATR
168 GPCRs (Homo sapiens, UniProt P41587), sequence (P41587 24-438): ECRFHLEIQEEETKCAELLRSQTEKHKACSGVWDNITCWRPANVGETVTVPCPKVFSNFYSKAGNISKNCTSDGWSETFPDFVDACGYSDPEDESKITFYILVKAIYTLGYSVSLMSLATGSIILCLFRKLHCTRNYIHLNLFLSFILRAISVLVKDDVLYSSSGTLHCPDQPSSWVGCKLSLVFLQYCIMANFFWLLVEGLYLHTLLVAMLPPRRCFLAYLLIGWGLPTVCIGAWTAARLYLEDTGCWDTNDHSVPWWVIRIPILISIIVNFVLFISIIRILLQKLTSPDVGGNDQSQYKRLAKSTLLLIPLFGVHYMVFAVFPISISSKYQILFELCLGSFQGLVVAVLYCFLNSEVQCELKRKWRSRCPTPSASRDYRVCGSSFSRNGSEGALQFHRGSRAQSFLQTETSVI
168 GPCRs (Homo sapiens, UniProt P48039), sequence (P48039 whole entry): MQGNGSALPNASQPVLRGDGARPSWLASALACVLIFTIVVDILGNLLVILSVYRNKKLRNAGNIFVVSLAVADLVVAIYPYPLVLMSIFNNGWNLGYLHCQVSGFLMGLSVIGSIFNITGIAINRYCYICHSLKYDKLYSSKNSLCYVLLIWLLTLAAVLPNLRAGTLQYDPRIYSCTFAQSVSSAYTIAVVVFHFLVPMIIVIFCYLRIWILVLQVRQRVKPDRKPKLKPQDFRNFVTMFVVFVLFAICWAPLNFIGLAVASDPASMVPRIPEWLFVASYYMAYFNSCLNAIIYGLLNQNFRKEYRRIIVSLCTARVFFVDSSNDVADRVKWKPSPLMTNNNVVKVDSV
168 GPCRs (Homo sapiens, UniProt P47211), sequence (P47211 whole entry): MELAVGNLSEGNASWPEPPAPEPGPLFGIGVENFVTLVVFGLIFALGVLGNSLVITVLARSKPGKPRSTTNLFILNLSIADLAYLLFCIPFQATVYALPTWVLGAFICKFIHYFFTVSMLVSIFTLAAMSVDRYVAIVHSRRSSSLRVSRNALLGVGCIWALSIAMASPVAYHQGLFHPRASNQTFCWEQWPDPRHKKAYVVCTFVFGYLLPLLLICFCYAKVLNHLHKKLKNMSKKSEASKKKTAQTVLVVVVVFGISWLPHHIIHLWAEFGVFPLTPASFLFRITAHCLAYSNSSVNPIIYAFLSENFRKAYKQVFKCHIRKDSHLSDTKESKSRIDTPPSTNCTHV

Question: For `CNC(C)C(=O)c1ccc2c(c1)OCO2` (centres unmarked) [methylone, 3,4-methylenedioxy-N-methylcathinone], which adverse effects ([1]; Cohort 1, 4 healthy subjects, total dose 790-870 mg in one session) is on record?
Answer: no adverse effects or after-effects were observed or reported

Question: What about the “patients with initial improvement at first methylone session” value ([1]; Cohort 2 (25 of 28 patients)) of the same molecule?
Answer: ~90%

Question: What about the “Number of cases with highest observed CGI-I 1” value ([1]; Cohort 2, N = 28) of the same molecule?
Answer: 11*

Question: And the “Number of cases with highest observed CGI-I 2” value ([1]; Cohort 2, N = 28)?
Answer: 13

Question: And the “Number of cases with highest observed CGI-I 3” value ([1]; Cohort 2, N = 28)?
Answer: 4

Question: What about the “Number of cases with highest observed CGI-I 4” value ([1]; Cohort 2, N = 28) of the same molecule?
Answer: 0

Question: And the “Number of cases with highest observed CGI-I 5” value ([1]; Cohort 2, N = 28)?
Answer: 0

Question: What about the “Number of cases with highest observed CGI-I 6” value ([1]; Cohort 2, N = 28) of the same molecule?
Answer: 0

Question: And the “Number of cases with highest observed CGI-I 7” value ([1]; Cohort 2, N = 28)?
Answer: 0

Question: And the “number of patients achieving a CGI-I of 1 or 2” value ([1]; Example 5, 21 PTSD patients)?
Answer: 17 patients

Question: What about the tolerability ([1]; Example 5, 21 PTSD patients, oral 100 to 1,020 mg) of the same molecule?
Answer: generally well tolerated

Question: What about the “Best CGI-S post-treatment” value ([1]; individual cases, Cohort 2) of the same molecule?
Answer: 1 and 4 and 2 and 3

Question: What about the “CGI-S max change from BL” value ([1]; individual cases, Cohort 2) of the same molecule?
Answer: −3 (4×) and −4

Question: What about the activity at 1 µM (168 GPCRs [2]) of the same molecule?
Answer: 6.4%

Question: And the activity at 1 µM (168 GPCRs [3])?
Answer: -18.9%

Question: And the activity at 10 µM (168 GPCRs [4])?
Answer: ~-14%

Question: And the activity at 10 µM (168 GPCRs [5])?
Answer: ~-2%

Question: What about the activity at 10 µM (168 GPCRs [6]) of the same molecule?
Answer: 8.8%

Question: And the activity at 10 µM (168 GPCRs [7])?
Answer: ~7%

Question: And the activity at 10 µM (168 GPCRs [8])?
Answer: ~15%

Question: What about the activity at 1 µM (168 GPCRs [9]) of the same molecule?
Answer: ~8%

Question: And the activity at 10 µM (168 GPCRs [10])?
Answer: -6.8%

Question: What about the activity at 1 µM (168 GPCRs [11]) of the same molecule?
Answer: ~-10%
